Laboratory results published in patent US6608082B1, “Treatment of erectile dysfunction using isoquinoline compound melanocortin receptor ligands” (Lion Bioscience AG, priority 1998, dated 2003).

Assays:
MCR-1 [1] = target: T1, MCR-1 (Homo sapiens, UniProt Q01726); assay: Melanocortin receptor binding assay, competition with 125I-HP 467, HEK 293 cells expressing hMCR-1; details: for % Disp. MC-1 10 μM: displacement of 125I-HP 467 at 10 μM isoquinoline compound; for % Disp. of 125I-HP 467 (first of duplicate) / % Disp. of 125I-HP 467 (second of duplicate): 10 μM isoquinoline compound; for % Disp. of 125I-HP 467 (first of duplicate): HEK 293 cells expressing MCR-1, duplicate 1; for % Disp. of 125I-HP 467 (second of duplicate): HEK 293 cells expressing MCR-1, duplicate 2; for specificity for at least one MC receptor over another MC receptor: MCR-1 versus MCR-4 binding; for effectiveness as MC receptor ligand: binding to MC receptors, Table 1
T1 construct: expressed in transfected cells; host or cells: HEK 293
Procedure, shortened: (§1)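 Intact-cell competition binding, 2.5 hr at 37 °C, in PBS/10% calf serum/1 mM CaCl2; hMCR-4 cells at 4×10^3 per tube, hMCR-1 cells at 2×10^4 per tube. Filtration on BSA/CaCl2-soaked GF/B, cold 50 mM Tris pH 7.4 washes, scintillation count.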

MCR-4 [2] = target: T2, MCR-4 (Homo sapiens, UniProt P32245); assay: Melanocortin receptor binding assay, competition with 125I-HP 467, HEK 293 cells expressing hMCR-4; details: TRG 2405 section; inhibition of binding of 125I-HP 467, HEK 293 cells expressing MCR-4; read-out: MC-4 IC50
T2 construct: expressed in transfected cells; host or cells: HEK 293
Procedure, shortened: as §1

MCR-1 [3] = target: T1, MCR-1; assay: cAMP assay for melanocortin receptors, HEK 293 cells expressing MCR-1; format: cell-based; details: for EC50: 50% of maximal cAMP production, read-out: MC-1 EC50 (cAMP); for MC-1 Max (pmole) cAMP produced: maximum amount of cAMP
Procedure: (§2) HEK 293 cells expressing MCR-1, MCR-3, MCR-4 and MCR-5 were used (see Example II). Cells were plated at 20,000 cells per well in a 96-well plate coated with collagen. The next day, cells were pretreated with 75 μl of 0.4 mM 3-isobutyl-1-methylxanthine (IBMX) in low serum medium containing DMEM, 25 mM HEPES, non-essential amino acids, vitamins, 100 units/ml penicillin, 100 μg/ml streptomycin and 0.1% COSMIC CALF SERUM. IBMX is an inhibitor of cAMP phosphodiesterase. The pretreatment was carried out for 10 min at 37° C.
(§3) Following pretreatment, 25 μl of diluted isoquinoline compound was added to the wells, and cells were incubated for 15 min at 37° C. Cells were lysed by adding 25 μl saponin lysis buffer and incubating 2 to 5 min. Plates were covered and stored at −20° C.
(§4) cAMP concentration was determined by ELISA. Briefly, 96 well ELISA plates were coated with goat anti-cAMP antibody in PBS for 12 to 72 hr at 4° C. 50 μl of sample was mixed with 50 μl of cAMP ELISA buffer containing 1% bovine serum albumin, 10% heat-inactivated donor horse serum, 1% normal mouse serum and 0.05% TWEEN-20 in PBS, and the diluted sample was added to the coated ELISA plate. Standards of known concentrations of cAMP were added to separate wells. 25 μl of 16 ng/ml cAMP-conjugated horse radish peroxidase (HRP) (cAMP-HRP) was added to each well, and the plates were […] at room temperature. Plates were washed and the binding of cAMP-HRP was detected with 3,3′,5,5′-tetramethylbenzidine (TMB) and hydrogen peroxide using standard immunoassay procedures.
(§5) Various isoquinoline compounds were tested for their ability to activate MC receptor by measuring cAMP as described in Example III.

MCR-3 = target: T3, MCR-3 (Homo sapiens, UniProt P41968); assay: cAMP assay for melanocortin receptors, HEK 293 cells expressing MCR-3; format: cell-based; details: read-out: MC-3 EC50 (cAMP)
T3 construct: expressed in transfected cells; host or cells: HEK 293
Procedure: as §2, §3, §4, §5

MCR-4 [4] = target: T2, MCR-4; assay: cAMP assay for melanocortin receptors, HEK 293 cells expressing MCR-4; format: cell-based; details: for EC50: read-out: MC-4 EC50 (cAMP); for MC-4 Max (pmole) cAMP produced: maximum amount of cAMP
Procedure: as §2, §3, §4, §5

MCR-5 = target: T4, MCR-5 (Homo sapiens, UniProt P33032); assay: cAMP assay for melanocortin receptors, HEK 293 cells expressing MCR-5; format: cell-based; details: read-out: MC-5 EC50 (cAMP)
T4 construct: expressed in transfected cells; host or cells: HEK 293
Procedure: as §2, §3, §4, §5

TNF-α = assay: Reduction of lipopolysaccharide-induced tumor necrosis factor levels in mice; format: in vivo, BALB/c female mice; details: for % TNF-α Inhibtion, IP 30: 30 μg per mouse; for % TNF-α Inhibtion, IP 300: 300 μg per mouse; for % TNF-α Inhibtion, Oral 600: 600 μg per mouse; for decrease of TNF-α levels: LPS treated mice
Procedure, shortened: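 Female BALB/c mice (about 20 g) were given test compound in 100 μl of PBS, while controls got 100 μl saline; one minute later every mouse received 100 μg LPS intraperitoneally (5 mg/kg in 0.9% saline). Orbital sinus blood was taken 90 or 105 minutes after LPS, and plasma TNF-α was quantified by sandwich ELISA. Percent reduction was calculated from mean (±SEM) levels of five mice per group.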

[5] = IP, plasma 90 or 105 minutes after LPS, mean ± SEM
[6] = plasma 90 or 105 minutes after LPS, mean ± SEM

T2 sequence (P32245 whole entry): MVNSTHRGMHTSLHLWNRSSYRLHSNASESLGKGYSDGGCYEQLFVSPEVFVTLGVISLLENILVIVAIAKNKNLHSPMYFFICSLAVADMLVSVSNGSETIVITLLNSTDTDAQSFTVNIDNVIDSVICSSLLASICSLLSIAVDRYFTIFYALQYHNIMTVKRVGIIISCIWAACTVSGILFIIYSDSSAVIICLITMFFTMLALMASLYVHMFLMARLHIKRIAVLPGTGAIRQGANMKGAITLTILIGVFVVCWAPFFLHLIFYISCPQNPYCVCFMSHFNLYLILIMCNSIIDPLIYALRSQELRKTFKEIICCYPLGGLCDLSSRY
T3 sequence (P41968 whole entry): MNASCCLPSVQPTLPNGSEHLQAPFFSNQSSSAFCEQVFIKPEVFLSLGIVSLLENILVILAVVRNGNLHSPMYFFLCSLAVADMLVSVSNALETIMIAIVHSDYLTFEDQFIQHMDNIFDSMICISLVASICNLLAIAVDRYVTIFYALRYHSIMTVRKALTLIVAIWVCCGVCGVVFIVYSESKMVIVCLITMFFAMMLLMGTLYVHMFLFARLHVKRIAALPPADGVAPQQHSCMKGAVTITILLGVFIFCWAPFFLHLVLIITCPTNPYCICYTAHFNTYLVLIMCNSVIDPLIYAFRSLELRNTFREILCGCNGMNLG
T1 sequence (Q01726 whole entry): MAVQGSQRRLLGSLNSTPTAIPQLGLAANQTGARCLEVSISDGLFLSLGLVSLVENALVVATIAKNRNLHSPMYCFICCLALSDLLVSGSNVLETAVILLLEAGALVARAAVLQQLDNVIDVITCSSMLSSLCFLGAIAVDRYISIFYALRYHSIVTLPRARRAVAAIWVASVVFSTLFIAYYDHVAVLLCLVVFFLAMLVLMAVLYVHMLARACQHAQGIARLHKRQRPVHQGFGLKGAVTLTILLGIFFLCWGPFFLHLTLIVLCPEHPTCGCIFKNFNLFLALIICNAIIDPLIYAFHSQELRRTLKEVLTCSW
T4 sequence (P33032 whole entry): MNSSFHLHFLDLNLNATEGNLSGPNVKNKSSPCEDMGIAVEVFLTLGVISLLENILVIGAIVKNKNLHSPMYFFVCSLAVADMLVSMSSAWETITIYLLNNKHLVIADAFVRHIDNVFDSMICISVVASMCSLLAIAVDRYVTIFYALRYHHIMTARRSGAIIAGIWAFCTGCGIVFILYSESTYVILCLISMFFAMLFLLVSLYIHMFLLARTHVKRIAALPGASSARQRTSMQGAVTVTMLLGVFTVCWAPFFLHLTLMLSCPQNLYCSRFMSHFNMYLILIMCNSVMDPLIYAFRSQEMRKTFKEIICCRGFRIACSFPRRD

Compound: CNC(CN)CN1Cc2ccccc2C(CNC2CCCCC2)C1c1ccc(O)cc1 (centres unmarked) [TRG 2405-156]
- IC50 (MCR-1 [1]; TRG 2405 section, inhibition of binding of 125I-HP 467, HEK 293 cells expressing MCR-1, read-out: MC-1 IC50): 17 µM
- % Disp. MC-1 10 μM (MCR-1 [1]; first of duplicate): 25.9%
- % Disp. MC-1 10 μM (MCR-1 [1]; second of duplicate): 21.3%
- IC50 (MCR-4 [2]): 20.6 µM
- EC50 (MCR-1 [3]): 20.6 µM
- MC-1 Max (pmole) cAMP produced (MCR-1 [3]): 16.01 pmol
- EC50 (MCR-3): > 50 µM
- EC50 (MCR-4 [4]): > 50 µM
- EC50 (MCR-5): > 50 µM
- % TNF-α Inhibtion, IP 30 (TNF-α; [5]): 30 ± 13%
- % TNF-α Inhibtion, IP 100 (TNF-α; IP, 100 μg per mouse, plasma 90 or 105 minutes after LPS, mean ± SEM): 12 ± 7%
- % TNF-α Inhibtion, IP 300 (TNF-α; [5]): 48 ± 16%

Compound: CNC(CN)CCCCN1Cc2ccccc2C(CNC2CCCCC2)C1c1ccc(O)cc1 (centres unmarked) [TRG 2405-246]
- % Disp. of 125I-HP 467 (first of duplicate) (MCR-1 [1]): 26.5%
- % Disp. of 125I-HP 467 (second of duplicate) (MCR-1 [1]): 20.7%
- EC50 (MCR-1 [3]): 23.7 µM
- MC-1 Max (pmole) cAMP produced (MCR-1 [3]): 12.48 pmol
- EC50 (MCR-3): > 50 µM
- EC50 (MCR-4 [4]): > 50 µM
- EC50 (MCR-5): > 50 µM
- % TNF-α Inhibtion, IP 30 (TNF-α; [5]): 27 ± 9%
- % TNF-α Inhibtion, IP 300 (TNF-α; [5]): 80 ± 3 %
- % TNF-α Inhibtion, Oral 600 (TNF-α; [6]): −29 ± 31 %

Compound: CNC(CN)CCCCN1Cc2ccccc2C(CNC2CCCCC2)C1c1ccc(Oc2ccccc2)cc1 (centres unmarked) [TRG 2405-252]
- % Disp. of 125I-HP 467 (first of duplicate) (MCR-1 [1]): 95.1%
- % Disp. of 125I-HP 467 (second of duplicate) (MCR-1 [1]): 95.5%
- specificity for at least one MC receptor over another MC receptor (MCR-1 [1]): about 10 fold
- effectiveness as MC receptor ligand (MCR-1 [1]): particularly effective MC receptor ligands
- EC50 (MCR-1 [3]): 16 µM
- MC-1 Max (pmole) cAMP produced (MCR-1 [3]): 33.07 pmol
- EC50 (MCR-3): > 50 µM
- MC-4 Max (pmole) cAMP produced (MCR-4 [4]): 39.24 pmol
- EC50 (MCR-4 [4]): 18.5 µM
- EC50 (MCR-5): > 50 µM
- % TNF-α Inhibtion, IP 30 (TNF-α; [5]): 49 ± 14 %
- % TNF-α Inhibtion, IP 300 (TNF-α; [5]): 90 ± 2 %
- decrease of TNF-α levels (TNF-α): particularly effective at decreasing TNF-α
- % TNF-α Inhibtion, Oral 600 (TNF-α; [6]): 55 ± 13 %

Compound: CCCOc1ccc(C2C(CNC3CCCCC3)c3ccccc3CN2CCCCC(CN)NC)cc1 (centres unmarked) [TRG 2405-253]
- % Disp. of 125I-HP 467 (first of duplicate) (MCR-1 [1]): 93.9%
- % Disp. of 125I-HP 467 (second of duplicate) (MCR-1 [1]): 92.2%
- specificity for at least one MC receptor over another MC receptor (MCR-1 [1]): about 10 fold
- effectiveness as MC receptor ligand (MCR-1 [1]): particularly effective MC receptor ligands
- EC50 (MCR-1 [3]): 8.5 µM
- MC-1 Max (pmole) cAMP produced (MCR-1 [3]): 22.55 pmol
- EC50 (MCR-3): > 50 µM
- MC-4 Max (pmole) cAMP produced (MCR-4 [4]): 69.11 pmol
- EC50 (MCR-4 [4]): 16.6 µM
- EC50 (MCR-5): > 50 µM
- % TNF-α Inhibtion, IP 30 (TNF-α; [5]): 46 ± 8%
- % TNF-α Inhibtion, IP 300 (TNF-α; [5]): 80 ± 7%
- decrease of TNF-α levels (TNF-α): particularly effective at decreasing TNF-α

Compound: CNC(CN)CCCCN1Cc2ccccc2C(CNC2CCCCC2)C1c1ccc2cccc(O)c2n1 (centres unmarked) [TRG 2405-262]
- % Disp. of 125I-HP 467 (first of duplicate) (MCR-1 [1]): 66.1%
- % Disp. of 125I-HP 467 (second of duplicate) (MCR-1 [1]): 66.8%
- EC50 (MCR-1 [3]): > 50 µM
- EC50 (MCR-3): > 50 µM
- EC50 (MCR-4 [4]): > 50 µM
- EC50 (MCR-5): > 50 µM
- % TNF-α Inhibtion, IP 300 (TNF-α; [5]): 83 ± 3 %
